Measured values: paper PMC3191288 (Matrix biology : journal of the International Society for …, 2011)
Blank lines part the entries; values can stand above or below the molecule they belong to.

Experiments:
[1] = target: T1, PEX (hemopexin domain of MMP-2) (Homo sapiens, UniProt P08253); test: Surface plasmon resonance, PEX over immobilized peptide; type: binding; conditions: PEX 0.3–10 μM over immobilized peptide, SPR
T1 sequence (P08253 446-660): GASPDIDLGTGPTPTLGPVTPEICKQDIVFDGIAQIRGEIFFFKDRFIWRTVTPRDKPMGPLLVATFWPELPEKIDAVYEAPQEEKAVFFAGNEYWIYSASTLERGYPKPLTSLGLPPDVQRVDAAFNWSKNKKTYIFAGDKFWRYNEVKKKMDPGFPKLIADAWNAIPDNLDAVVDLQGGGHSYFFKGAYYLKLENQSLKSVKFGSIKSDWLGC

[2] = system: proMMP-2 activation by HT1080 cell membranes; test: Activation of purified proMMP-2 by isolated HT1080 cell membranes; type: biochemical, human; conditions: peptide 3.7–100 μM, 16 h at 22 °C, pH 7.4; repeated at least 3 times
[3] = system: collagen binding domain of MMP-2 (CBD); test: Surface plasmon resonance, CBD over immobilized peptide; parameters: species or system human; conditions: CBD 10 μM over immobilized peptide, SPR
[4] = system: proMMP-2 activation in HT1080 fibrosarcoma cells; test: Cell surface activation of proMMP-2 in Con A stimulated HT1080 cell culture; type: cell-based, human; conditions: Con A 20 μg/ml, 0 nM C-TIMP-2
[5] = target: recombinant human MMP-2^E404A (human) (UniProt P08253); test: ELISA
[6] = target: recombinant full-length TIMP-2 (human (plasmid pGWIGH/htimp-2)) (UniProt P16035); test: ELISA
Chain of recombinant full-length TIMP-2 (human (plasmid pGWIGH/htimp-2)) (P16035 27-220): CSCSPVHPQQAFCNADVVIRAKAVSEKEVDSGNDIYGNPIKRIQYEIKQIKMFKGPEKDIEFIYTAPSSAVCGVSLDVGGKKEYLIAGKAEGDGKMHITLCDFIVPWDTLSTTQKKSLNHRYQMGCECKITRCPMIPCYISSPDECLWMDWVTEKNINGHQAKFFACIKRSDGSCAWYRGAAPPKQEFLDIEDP

proMMP-2 activation = conditions: ref Strongin et al., 1995; cited from earlier work
[7] = target: recombinant full-length TIMP-2 (human (plasmid pGWIGH/htimp-2), UniProt P16035 27-220); test: ELISA
Chain of recombinant full-length TIMP-2 (P16035 27-220): as above

Molecule: CAWYRGAAPPK [P175S]
- binding of PEX to peptide [1]: consistently very weak
- inhibition of proMMP-2 activation by peptide [2]: did not have any inhibitory effect on the cell membrane- mediated activation of proMMP-2
- binding of CBD to peptide [3]: did not bind

Molecule: concanavalin A [Con A]
- activated MMP-2 band intensity [4]: 34,199 RDU
- non-activated MMP-2 band intensity [4]: 3,439 RDU
- proMMP-2 activated by Con A [4]: > 90%

Molecule: tissue inhibitor of matrix metalloproteinase 2 [TIMP-2]
- concentration at which full-length TIMP-2 inhibited activation of proMMP-2 (proMMP-2 activation): greater than 285 nM

Results, then the molecule that gave them:

- IC50 [5]: 5 µM
- Kd [5]: 390 nM
Molecule: recombinant carboxyl-terminal domain of TIMP-2 (C-TIMP-2) (from UniProt P16035 154-220) (domain or fragment)

- EC50 [6]: 50 nM
Molecule: recombinant human MMP-2^E404A (from UniProt P08253 30-660) (enzyme)

- EC50 [7]: 150 nM
B1: hemopexin-like domain of MMP-2 (PEX) (domain or fragment, human, UniProt P08253 446-660, looked up)
chain: T1 sequence (P08253 446-660)
modifications: biotinylated (sites not given) in the assays on coated TIMP-2; unlabeled when coated and in SPR
